Data as given in patent US20240181125A1, “COMPOSITIONS AND METHODS FOR SCARLESS WOUND HEALING IN DIABETES” (Washington University, priority 2022, published 2024).
Entries after “also recorded” stand apart in the source; their conditions may differ.

Legend:
TGFβ1/p38 pathway = test: Immunoblotting of p-p38 in HDFs; assay type: cell-based, human; conditions: high glucose
Protocol: For in vitro tests, protein lysates were collected from HDFs. Pre-cooled cell scrapers were used to detach the cells, and the cells were re-suspended in RIPA lysis buffer with the inhibitor cocktail. For in vivo tests, wound skin tissues were washed three times with pre-cooled DPBS, dissected into small pieces, and re-suspended in RIPA lysis buffer containing protease and phosphatase inhibitors. Homogenization was then performed thereafter with an ultrasonic processor (Cole Parmer). After centrifugation at 12,000 g for 20 min, the supernatants were collected, and protein concentrations were measured using a Bradford protein assay kit (Bio-rad).
The protein samples were separated by 10% Mini-PROTEAN TGX stain-free precast gels (Bio-rad) and transferred onto an immune-blot PVDF membrane. The blots were washed three times with DPBS containing 0.1% Tween 20 (PBST), blocked with 5% milk powder in PBST buffer for 40 min, and incubated with primary antibodies at specific dilutions overnight at 4° C. The primary antibodies included rabbit GAPDH antibody (1:5000, Cell signaling), rabbit anti-a-smooth muscle actin (α-SMA) antibody (1:2000, Cell signaling), rabbit anti-phospho-Smad2(Ser465/467)/Smad3 (Ser423/425) (1:500, Cell signaling), and rabbit anti-phospho-p38 (1:500, Cell signaling). The membranes were washed three times with PBST and incubated with horseradish peroxidase (HRP)-conjugated secondary antibodies (1:2500). Immunoblots were then washed with PBST and detected with a WesternBright HRP substrate detection kit (Advansta). The ChemiDoc XPS+system (Bio-rad) was used to image the blots.

[1] = In vitro release of peptide from hydrogel; assay type: physicochemical; conditions: loadings 10, 20, 50 μg/mL; three weeks
Protocol: To characterize the ECG release properties of the NIPAAm-based hydrogels disclosed herein, the following experiments were conducted. Hydrogel samples were synthesized with varying levels of ECG loading: 10 μg/mL, 20 μg/mL, and 50 μg/mL. The cumulative release of ECG from the hydrogel samples was assessed over a three-week period.
Wound dressings were fabricated by encapsulating PTβR2I in the hydrogel solution at 4° C. Briefly, PTβR2I solution was mixed with 6 wt. % hydrogel solution to reach final PTβR2I concentrations of 10 μg/mL, 20 μg/mL and 50 μg/mL. The mixtures were stirred at 4° C. for 12 hours. To determine PTβR2I release kinetics, the mixtures were first incubated at 37° C. to gel. After 1 hour, the supernatant was replaced by a release medium (DPBS with 1% P/S). The medium was then collected at pre-determined time points for 21 days, and a fresh release medium was added after each collection. The concentration of the released PTβR2I was determined by measuring the fluorescence intensity and calculating the corresponding concentration using a standard curve. The bioactivity of the released PTβR2I was evaluated by its ability to bind to the TβR2 on the HDFs. […] After 2 hours of incubation, the cells were washed three times with DPBS, and the fluorescence intensity was measured using a microplate reader (excitation/emission=485/535 nm).

HDF, HaCaT, HAECs, BMM = test: Example 4 in vitro survival, migration, cytokine and growth factor secretion with TGF-beta I and high glucose; assay type: cell-based, human, mouse
Description: Human dermal fibroblasts (HDF), human skin keratinocytes (HaCaT), human artery endothelial cells (HAECs), and mouse bone marrow-derived macrophages (BMM) were used to test the in vitro survival, migration, secretion of inflammatory cytokines, and angiogenic growth factors in the presence of TGF-beta I and high glucose content.
FIG. 4B is a Western blot of p38 and GAPDH (control) expression for dermal fibroblasts under high glucose levels. Untreated cells (control) were compared with cells exposed to 10 ng/ml of TGFβ with ECG treatments of 0 μg/mL, 10 μg/mL, and 1 μg/mL.

[2] = test system: dermal wounds of db/db mice; test: Example 3 dermal wound closure, subcutaneous ECG/gel; assay type: in vivo
Protocol: db/db (Diabetic, […]) mice were used as an animal wound model. Dermal wounds were created using sterile 5 mm biopsy punches to expose the underlying muscle fascia, followed by subcutaneous injection of either control gel (6 wt %) or ECG/gel (50 μg/mL ECG in 6 wt % gel). In addition, a subgroup of the dermally-wounded mice was left untreated as controls. The dermal wounds of all mice were observed every other day until recovery using a digital camera to record successive images as well as measuring wound size using digital calipers. Image analysis using ImageJ was also performed to do a blind measurement of wound size. Subgroups of the mice were sacrificed at three different time points: day 3, day 8, and day 16. Skin samples were collected from the sacrificed mice for histology, immunohistochemistry analysis, and Western blot studies.

Molecule: Oc1ccc(-c2nc(-c3ccncc3)c(-c3ccc(F)cc3)[nH]2)cc1 [SB202190, reference compound]
- p-p38 expression (TGFβ1/p38 pathway; with TGFβ1): notably downregulated

Molecule: ECGLLPVGRPDRVWRLCK
- duration of initial rapid release of ECG from hydrogel [1]: 3 to 4 days
- survival and migration of keratinocytes, fibroblasts, and endothelial cells (HDF, HaCaT, HAECs, BMM; presence of TGF-beta I): improved
- angiogenic growth factor secretions (HDF, HaCaT, HAECs, BMM; various cell types): promoted
- pro-inflammatory cytokines expression (HDF, HaCaT, HAECs, BMM; various cell types): suppressed
- p38 expression in wound tissues ([2]; Western blot vs control gel): suppressed; also recorded: downregulated
- increase of blood vessel density and mature blood vessel density vs control ([2]; day 8): up to 4 fold

Molecule: TGFβ1: growth factor used as stimulus, 10 ng/ml
- increase in baseline phosphorylation of p38 relative to no TGFβ1 group (TGFβ1/p38 pathway): ~4 fold
